Each structure is given as a SMILES string. Calls of active or inactive are those of the source. The calls are words filed in the database; no cut-off is given here.

Experiment [1] has as its system T47D. The experiment in a line: Antiestrogenic activity in human T47D cells assessed as compound concentration required to decrease 100 pM E2-induced cell proliferation to equivalent levels induced by 50 pM E2 after 96 hrs by alamar blue assay. The format is functional.
Experiment [2] deals with MCF7. The experiment in a line: Estrogen-like activity in human MCF7 cells assessed as increase in cell proliferation after 96 hrs by alamar blue assay. The format is functional, cell-based. In general terms: Resazurin is reduced to fluorescent resorufin, in cell work by metabolically active cells.
Experiment [3] has as its system Leishmania major. The experiment in a line: Leishmanicidal activity against Leishmania major promastigotes at 100 ug/ml after 48 hrs by MTT assay. The format is functional, organism-based. In general terms: Tetrazolium dyes change colour on reduction, which living cells bring about.
The test system of experiment [4] is MCF7. The experiment in a line: Antiestrogenic activity in human MCF7 cells assessed as inhibition of E2-induced cell proliferation up to 10 uM after 96 hrs by alamar blue assay relative to control. The format is functional.
Experiment [5] relates to MCF7. The experiment in a line: Antiestrogenic activity in human MCF7 cells assessed as compound concentration required to decrease 100 pM E2-induced cell proliferation to equivalent levels induced by 50 pM E2 after 96 hrs by alamar blue assay. The format is functional.
The test system of experiment [6] is T47D. The experiment in a line: Estrogen-like activity in human T47D cells assessed as increase in cell proliferation after 96 hrs by alamar blue assay. The format is functional, cell-based.
In experiment [7] the test system is MCF7. The experiment in a line: Antiestrogenic activity in human MCF7 cells assessed as compound concentration required to decrease 100 pM E2-induced cell proliferation to equivalent levels induced by 10 pM E2 after 96 hrs by alamar blue assay. The format is functional.
Experiment [8] relates to T47D. The experiment in a line: Antiestrogenic activity in human T47D cells assessed as inhibition of E2-induced cell proliferation up to 10 uM after 96 hrs by alamar blue assay relative to control. The format is functional.
For experiment [9], the system named is T47D. The experiment in a line: Antiestrogenic activity in human T47D cells assessed as compound concentration required to decrease 100 pM E2-induced cell proliferation to equivalent levels induced by 10 pM E2 after 96 hrs by alamar blue assay. The format is functional.
In experiment [10] the test system is MCF7. The experiment in a line: Antiestrogenic activity in human MCF7 cells assessed as compound concentration required to decrease 100 pM E2-induced cell proliferation to equivalent levels induced by 1 pM E2 after 96 hrs by alamar blue assay. The format is functional.
The subject of experiment [11] is T47D. The experiment in a line: Antiestrogenic activity in human T47D cells assessed as compound concentration required to decrease 100 pM E2-induced cell proliferation to equivalent levels induced by 1 pM E2 after 96 hrs by alamar blue assay. The format is functional.

Consider `COc1c(O)cc([C@@H]2OC[C@@H]3[C@H]2CO[C@H]3c2cc(O[C@@H]3O[C@H](CO)[C@@H](O)[C@H](O)[C@H]3O)c(OC)c(OC)c2OC)c(OC)c1OC`, for which the Activity is under 0.01 µM in experiment [1], under 0.01 µM in experiment [5] and under 0.1 µM in experiment [7]. The result in [2], in experiment [3] and in [6] was inactive. Also, the “inhibition (INH)” value in experiment [4] is given as over 90%.
Consider `COc1cc([C@H]2OC[C@H]3[C@@H]2CO[C@@H]3c2cc(OC)c(OC)c(OC)c2O[C@@H]2O[C@H](CO)[C@@H](O)[C@H](O)[C@H]2O)cc2c1OCO2`, for which the outcome in experiment [2], in [3] and in experiment [6] was inactive. Besides, in experiment [5], the Activity was under 0.01 µM.
For `COc1c(O)cc([C@H]2OC[C@H]3[C@@H]2CO[C@@H]3c2cc3c(c(OC)c2OC)OCO3)c(O[C@@H]2O[C@H](CO)[C@@H](O)[C@H](O)[C@H]2O)c1OC`, the Activity in experiment [1], in [5] and in experiment [7] was under 0.01 µM in each case. Moreover, the result in [2], in [3] and in [6] was inactive. Further, in experiment [4], the “inhibition (INH)” value is on record as over 90%.
Take `COc1cc([C@@H]2OC[C@H]3[C@@H]2CO[C@@H]3c2cc(OC)c(OC)c(OC)c2O[C@@H]2O[C@H](CO)[C@@H](O)[C@H](O)[C@H]2O)c(O)c(OC)c1OC`: the Activity in [1] was under 0.1 µM; in experiment [5], under 0.01 µM; in [7] it was under 0.01 µM. In addition, the result in experiment [2], in experiment [3] and in experiment [6] was inactive. The “inhibition (INH)” value in experiment [4] is over 90%.
Regarding `COc1c(O)cc([C@H]2OC[C@H]3[C@@H]2CO[C@@H]3c2ccc3c(c2)OCO3)c(O[C@@H]2O[C@H](CO)[C@@H](O)[C@H](O)[C@H]2O)c1OC`, the Activity in experiment [1] and in experiment [5] was under 0.01 µM in each case. Also, the result in [2], in [3] and in experiment [6] was inactive.
As for `COc1cc([C@H]2OC[C@H]3[C@@H]2CO[C@@H]3c2ccc3c(c2)OCO3)c(O[C@@H]2O[C@H](CO)[C@@H](O)[C@H](O)[C@H]2O)c(OC)c1OC`, the Activity in experiment [1] was under 0.01 µM; in experiment [5], under 0.01 µM; in [9], under 0.01 µM; in experiment [7], under 0.01 µM; in experiment [10], 3.5 µM. Besides, the outcome in experiment [2], in experiment [3] and in experiment [6] was inactive. In experiment [8], the “inhibition (INH)” value is reported as over 90%.
Regarding `COc1cc([C@H]2OC[C@H]3[C@@H]2CO[C@H]3c2cc(OC)c(OC)c(OC)c2O[C@@H]2O[C@H](CO)[C@@H](O)[C@H](O)[C@H]2O)cc2c1OCO2`, the Activity is 5.6 µM in experiment [1], under 0.01 µM in [5] and 0.6 µM in experiment [7]. In addition, the result in experiment [2], in experiment [3] and in experiment [6] was inactive. In addition, the “inhibition (INH)” value in experiment [4] was over 50%.
As for `COc1cc([C@H]2OC[C@H]3[C@@H]2CO[C@@H]3c2cc(OC)c3c(c2)OCO3)cc(O[C@@H]2O[C@H](CO)[C@@H](O)[C@H](O)[C@H]2O)c1OC`, the Activity in experiment [1], in experiment [5] and in [9] was under 0.01 µM throughout. The result in [2], in experiment [3] and in experiment [6] was inactive. In experiment [8], the “inhibition (INH)” value was over 90%.
For `COc1cc([C@@H]2OC[C@@H]3[C@H]2CO[C@H]3c2cc(O[C@@H]3O[C@H](CO)[C@@H](O)[C@H](O)[C@H]3O)c(OC)c(OC)c2OC)c(OC)c(OC)c1OC`, the Activity in experiment [1] is under 0.01 µM; in experiment [5], under 0.01 µM; in [9] it was 1 µM. In addition, the result in experiment [2], in experiment [3] and in [6] was inactive. Also, the “inhibition (INH)” value in experiment [8] is over 50%.
`COc1cc([C@H]2OC[C@H]3[C@@H]2CO[C@@H]3c2cc(OC)c(OC)c(OC)c2O[C@@H]2O[C@H](CO)[C@@H](O)[C@H](O)[C@H]2O)cc(OC)c1OC`: the Activity in [1] is under 0.01 µM; in experiment [5], under 0.01 µM; in experiment [9], under 0.01 µM; in experiment [7], 9.8 µM. The outcome in experiment [2], in experiment [3] and in experiment [6] was inactive. For the same compound, the “inhibition (INH)” value in experiment [8] is recorded as over 90%; in [4], over 50%.
As for `COc1cc([C@H]2OC[C@H]3[C@@H]2CO[C@@H]3c2cc(O)c(OC)c(OC)c2O[C@@H]2O[C@H](CO)[C@@H](O)[C@H](O)[C@H]2O)cc2c1OCO2`, the values for the Activity in [1], in experiment [5] and in [7] were 10 µM, under 0.01 µM and under 0.1 µM, respectively. The outcome in experiment [2], in experiment [3] and in [6] was inactive. Further, in [4], the “inhibition (INH)” value is over 90%.
`CC/C(=C(\c1ccccc1)c1ccc(OCCN(C)C)cc1)c1ccccc1` [TAMOXIFEN]: the Activity in [1] turned out to be 0.1 µM; in [11] it was 7 µM; in experiment [5], 0.1 µM; in [9] it was 0.9 µM; in experiment [7], 0.3 µM; in [10] it was 4.5 µM.
Take `COc1cc([C@@H]2OC[C@@H]3[C@H]2CO[C@H]3c2cc(O)c(OC)c(OC)c2O[C@@H]2O[C@H](CO)[C@@H](O)[C@H](O)[C@H]2O)c(OC)c(OC)c1OC`: the Activity in [1] and in experiment [5] was under 0.01 µM in each case. Besides, the outcome in [2], in experiment [3] and in experiment [6] was inactive.
`COc1cc([C@H]2OC[C@H]3[C@@H]2CO[C@@H]3c2cc(OC)c(OC)c(OC)c2O[C@@H]2O[C@H](CO)[C@@H](O)[C@H](O)[C@H]2O)c(O)c(OC)c1OC`: the Activity in experiment [1] and in experiment [5] was under 0.01 µM each time. The result in experiment [2], in experiment [3] and in experiment [6] was inactive.

The record behind these values is ChEMBL document CHEMBL4428032, “Furofuran Lignan Glucosides with Estrogen-Inhibitory Properties from the Bangladeshi Medicinal Plant Terminalia citrina” (2016).
